Assay results: patent US11834453B2, “Substituted pyrimido[5,4-d]pyrimidines as HER2 inhibitors” (Array BioPharma Inc., priority 2020, dated 2023)
Read-outs that look alike come from different tables or passages of the source.

Tests used:
[1] = target: ErbB2 with Exon 20 YVMA insertion (HER2-YVMA) (Homo sapiens (Human), UniProt P04626, INS775YVMA); assay: Cellular phosphorylation assay, constitutive ErbB2 phosphorylation (Y1196) in engineered NIH 3T3 cells, Assay 4; assay type: cell-based
Outline: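 In-cell Western in NIH 3T3 cells carrying ErbB2 exon 20 YVMA insertion, with no ligand stimulation. One hour compound exposure at 37 °C before fixation and anti-pY1196 plus GAPDH staining with dual-wavelength fluorescence. IC50 derived after GAPDH normalization.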

EGFR wild type (EGFR WT) = EGFR wild type (EGFR WT) (Homo sapiens (Human), UniProt P00533); assay: Cellular phosphorylation assay, EGF-stimulated EGFR phosphorylation in engineered NIH 3T3 cells, Phospho-EGFR DuoSet IC ELISA, Assay 5; assay type: cell-based
Outline: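 Phospho-EGFR ELISA on lysates of engineered NIH 3T3 EGFR WT cells, IC50 derived from concentration curves. Cells plated at 20,000/well overnight, given compound dilutions 1 h at 37 °C, then rEGF 100 ng/ml for a further 10 min before lysis.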

EGFR = EGFR (Homo sapiens (Human), UniProt P00533); assay: ErbB enzyme assay (CisBio HTRF KinEASE-TK), Assay 3; assay type: biochemical
Outline: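 IC50 was taken where a 4-parameter logistic fit crossed 50 percent of control (DMSO 100, pre-quenched 0), read by ratiometric HTRF. Reactions ran 30 min at 22 °C with 1 mM ATP and 250 nM TK-substrate biotin in pH 7.4 HEPES buffer with MgCl2, Triton X-100 and 2% DMSO.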

[2] = target: ErbB2 insYVMA (HER2-YVMA, SEQ ID NO: 2) (Homo sapiens, UniProt P04626, INS775YVMA/P1170A); assay: biochemical; conditions: ErbB2 insYVMA enzyme assay
MDR1 (P-gp) [3] = target: T1, MDR1 (P-gp) (Homo sapiens (Human), UniProt P08183); conditions: dog, MDCK-MDR1, 2 h, 1 μM
ErbB2 WT = ErbB2 WT (Homo sapiens (Human), UniProt P04626); assay: ErbB enzyme assay (CisBio HTRF KinEASE-TK), Assay 2; assay type: biochemical
Outline: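 Readout is HTRF KinEASE-TK, using Sa-XL665 and cryptate antibody for 1 h at 22 °C, as percent of control between DMSO-only (100) and pre-quenched (0) reactions. The kinase reaction runs 30 min at 22 °C with 1 mM ATP and 250 nM biotinylated TK substrate, in HEPES pH 7.4 with MgCl2 and 2% DMSO.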

BCRP [4] = target: T2, BCRP (Homo sapiens (Human), UniProt Q9UNQ0); conditions: dog, 2 h, 1 μM
MDR1 (P-gp) [5] = target: T1, MDR1 (P-gp); conditions: pig, LLC-PK1, 2 h, 1 μM
BCRP [6] = target: T2, BCRP; assay: BCRP transfected MDCKII permeability/efflux, Assay 8; assay type: in vitro ADME; conditions: dog, efflux ratio Papp(B-A)/Papp(A-B), read-out: Assay 8 Pe Ratio
Description: BCRP transfected MDCKII cells (Assay 8) and BCRP transfected MDCKII canine Mdr1 knockout cells (Assay 9) were cultured and plated according to manufacturer's recommendations.
Both positive and negative controls were used to assess functionality of P-gp or BCRP efflux in the assays. Stock solutions for assay controls and the test article were prepared in DMSO for final test concentration of 1 μM. Final organic concentration in the assay was 1%. All dosing solutions contained 10 μM lucifer yellow to monitor MDCKII cell monolayer integrity.
For the apical to basolateral determination (A to B), 75 μL of the test article in transport buffer were added to the apical side of the individual transwells and 250 μL of basolateral media, without compound or lucifer yellow, were added to each well. For the basolateral to apical determination (B to A), 250 μL of test article in transport buffer were added to each well and 75 μL transport buffer, without compound or lucifer yellow, were added to each transwell. All tests were performed in triplicate, and each compound was tested for both apical to basolateral and basolateral to apical transport. The plates were incubated for 2 hours on a Lab-Line Instruments Titer Orbital Shaker (VWR, West Chester, PA) at 50 rpm and 37° C. with 5% CO2. All culture plates were removed from the incubator, 50 μL of media were removed from the apical and basolateral portion of each well, and added to 150 μL of 1 μM labetalol in 2:1 acetonitrile (ACN): H2O, v/v.
The plates were read using a Molecular Devices (Sunnyvale, CA) Gemini Fluorometer to evaluate the lucifer yellow concentrations at excitation/emission wavelengths of 425/535 nm. […] The plates were sealed, and the contents of each well analyzed by LC MS/MS. The compound concentrations were determined from the ratio of the peak areas of the compound to the internal standard (labetalol) in comparison to the dosing solution.
A MDS Sciex API 4000 (Applied Biosystems, Foster City, CA) mass spectrometer was used for detection of the analytes in the ion spray positive mode. Analyte responses were measured by multiple reaction monitoring (“MRM”) of transitions unique to each compound (the protonated precursor ion and selected product ions for each test article and m/z 329 to m/z 162 for labetalol, the internal standard.
The total run time, including re-equilibration, for a single injection was 1.2 minutes. […] The total run time, including re-equilibration, for a single injection was 0.61 minutes.
An efflux ratio is calculated from the mean apical to basolateral (A-B) Papp data and basolateral to apical (B-A) Papp data: Efflux ratio=Papp(B−A)/Papp(A−B)

MDR1 (P-gp) [7] = target: T1, MDR1 (P-gp); assay: MDR1 transfected LLC-PK1 permeability/efflux, Assay 6; conditions: pig, LLC-PK1, Assay 6 Pe Ratio, efflux ratio Papp(B-A)/Papp(A-B), MDR1 transfected LLC-PK1

T2 sequence (Q9UNQ0 whole entry): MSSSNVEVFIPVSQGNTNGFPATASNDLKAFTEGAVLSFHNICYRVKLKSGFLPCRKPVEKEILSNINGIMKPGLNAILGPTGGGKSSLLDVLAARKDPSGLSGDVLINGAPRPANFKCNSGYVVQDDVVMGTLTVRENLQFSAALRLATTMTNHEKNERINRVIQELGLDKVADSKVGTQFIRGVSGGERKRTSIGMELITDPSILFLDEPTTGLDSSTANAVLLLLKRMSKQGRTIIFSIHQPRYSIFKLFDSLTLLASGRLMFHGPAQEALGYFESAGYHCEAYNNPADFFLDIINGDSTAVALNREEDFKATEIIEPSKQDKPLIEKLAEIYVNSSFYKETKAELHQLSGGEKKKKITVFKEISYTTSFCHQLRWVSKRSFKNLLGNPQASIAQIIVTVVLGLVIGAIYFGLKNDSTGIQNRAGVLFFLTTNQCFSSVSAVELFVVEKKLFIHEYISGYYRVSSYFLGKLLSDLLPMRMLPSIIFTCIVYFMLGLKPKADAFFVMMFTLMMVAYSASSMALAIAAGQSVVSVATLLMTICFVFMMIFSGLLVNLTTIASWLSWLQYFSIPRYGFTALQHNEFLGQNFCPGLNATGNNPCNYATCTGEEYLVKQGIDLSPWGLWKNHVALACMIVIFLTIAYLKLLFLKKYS
Chain of ErbB2 WT (P04626 23-1255): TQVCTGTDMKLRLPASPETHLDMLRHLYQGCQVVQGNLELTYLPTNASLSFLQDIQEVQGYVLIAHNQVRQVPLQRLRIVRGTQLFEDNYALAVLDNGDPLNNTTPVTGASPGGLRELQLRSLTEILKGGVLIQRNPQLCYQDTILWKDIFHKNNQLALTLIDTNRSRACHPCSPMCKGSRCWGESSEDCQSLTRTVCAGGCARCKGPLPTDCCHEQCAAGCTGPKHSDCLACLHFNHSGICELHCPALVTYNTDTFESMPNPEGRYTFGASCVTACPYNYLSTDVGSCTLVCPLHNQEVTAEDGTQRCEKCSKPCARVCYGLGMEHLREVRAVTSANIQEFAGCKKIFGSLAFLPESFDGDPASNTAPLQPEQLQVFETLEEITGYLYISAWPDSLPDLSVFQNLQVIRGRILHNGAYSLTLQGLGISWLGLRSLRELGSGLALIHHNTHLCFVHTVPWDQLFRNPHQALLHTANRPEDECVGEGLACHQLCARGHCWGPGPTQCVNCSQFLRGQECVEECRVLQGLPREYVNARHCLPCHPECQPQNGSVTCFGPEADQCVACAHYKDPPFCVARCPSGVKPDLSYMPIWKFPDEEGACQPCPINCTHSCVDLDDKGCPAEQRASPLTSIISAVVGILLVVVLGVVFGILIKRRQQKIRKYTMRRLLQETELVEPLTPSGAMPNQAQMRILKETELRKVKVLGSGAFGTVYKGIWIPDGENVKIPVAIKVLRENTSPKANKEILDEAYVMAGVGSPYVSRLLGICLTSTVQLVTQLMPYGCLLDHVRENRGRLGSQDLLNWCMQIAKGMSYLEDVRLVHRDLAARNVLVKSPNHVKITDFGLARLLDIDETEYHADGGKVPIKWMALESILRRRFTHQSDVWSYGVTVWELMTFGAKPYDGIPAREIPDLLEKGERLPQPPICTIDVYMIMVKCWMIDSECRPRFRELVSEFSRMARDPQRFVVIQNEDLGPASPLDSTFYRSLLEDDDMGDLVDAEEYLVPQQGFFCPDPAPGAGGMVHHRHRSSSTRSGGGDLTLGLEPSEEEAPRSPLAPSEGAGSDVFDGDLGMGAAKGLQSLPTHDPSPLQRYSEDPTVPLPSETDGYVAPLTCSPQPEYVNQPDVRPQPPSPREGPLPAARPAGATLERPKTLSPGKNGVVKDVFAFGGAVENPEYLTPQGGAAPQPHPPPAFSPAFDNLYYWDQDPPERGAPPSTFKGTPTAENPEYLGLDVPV
Chain of ErbB2 insYVMA (HER2-YVMA, SEQ ID NO: 2) (P04626 with tags, fused parts or gaps INS775YVMA/P1170A limits assumed): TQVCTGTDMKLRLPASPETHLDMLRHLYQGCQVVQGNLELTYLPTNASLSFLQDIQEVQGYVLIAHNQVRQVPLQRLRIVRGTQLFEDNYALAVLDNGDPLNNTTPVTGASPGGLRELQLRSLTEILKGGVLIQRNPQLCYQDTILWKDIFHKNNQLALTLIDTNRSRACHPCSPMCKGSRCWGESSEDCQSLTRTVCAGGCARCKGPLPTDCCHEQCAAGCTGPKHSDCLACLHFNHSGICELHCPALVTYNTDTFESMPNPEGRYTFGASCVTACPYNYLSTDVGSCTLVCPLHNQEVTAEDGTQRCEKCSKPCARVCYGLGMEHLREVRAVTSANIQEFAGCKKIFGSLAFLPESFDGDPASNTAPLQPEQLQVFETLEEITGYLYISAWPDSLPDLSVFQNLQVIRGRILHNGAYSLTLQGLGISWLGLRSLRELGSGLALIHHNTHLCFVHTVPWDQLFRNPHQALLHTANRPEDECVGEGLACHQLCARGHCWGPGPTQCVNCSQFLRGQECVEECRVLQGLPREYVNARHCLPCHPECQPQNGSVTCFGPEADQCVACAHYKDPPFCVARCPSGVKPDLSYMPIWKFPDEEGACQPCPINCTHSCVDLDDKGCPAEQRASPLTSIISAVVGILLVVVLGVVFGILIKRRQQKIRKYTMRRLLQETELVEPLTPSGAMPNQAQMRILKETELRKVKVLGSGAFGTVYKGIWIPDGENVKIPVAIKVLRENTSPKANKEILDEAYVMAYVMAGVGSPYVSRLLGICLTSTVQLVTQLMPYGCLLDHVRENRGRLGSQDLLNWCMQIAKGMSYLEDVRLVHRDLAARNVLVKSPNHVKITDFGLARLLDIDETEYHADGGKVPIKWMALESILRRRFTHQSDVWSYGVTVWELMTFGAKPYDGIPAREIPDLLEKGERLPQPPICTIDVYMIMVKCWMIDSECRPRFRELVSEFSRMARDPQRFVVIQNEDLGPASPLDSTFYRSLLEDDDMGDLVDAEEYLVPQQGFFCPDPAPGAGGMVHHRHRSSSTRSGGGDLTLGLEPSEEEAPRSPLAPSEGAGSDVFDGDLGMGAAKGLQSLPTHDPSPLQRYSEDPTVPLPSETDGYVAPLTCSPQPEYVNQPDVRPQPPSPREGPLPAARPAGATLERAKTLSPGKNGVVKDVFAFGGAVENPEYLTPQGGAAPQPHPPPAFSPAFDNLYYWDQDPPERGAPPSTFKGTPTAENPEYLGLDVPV
Chain of EGFR (P00533 25-1210): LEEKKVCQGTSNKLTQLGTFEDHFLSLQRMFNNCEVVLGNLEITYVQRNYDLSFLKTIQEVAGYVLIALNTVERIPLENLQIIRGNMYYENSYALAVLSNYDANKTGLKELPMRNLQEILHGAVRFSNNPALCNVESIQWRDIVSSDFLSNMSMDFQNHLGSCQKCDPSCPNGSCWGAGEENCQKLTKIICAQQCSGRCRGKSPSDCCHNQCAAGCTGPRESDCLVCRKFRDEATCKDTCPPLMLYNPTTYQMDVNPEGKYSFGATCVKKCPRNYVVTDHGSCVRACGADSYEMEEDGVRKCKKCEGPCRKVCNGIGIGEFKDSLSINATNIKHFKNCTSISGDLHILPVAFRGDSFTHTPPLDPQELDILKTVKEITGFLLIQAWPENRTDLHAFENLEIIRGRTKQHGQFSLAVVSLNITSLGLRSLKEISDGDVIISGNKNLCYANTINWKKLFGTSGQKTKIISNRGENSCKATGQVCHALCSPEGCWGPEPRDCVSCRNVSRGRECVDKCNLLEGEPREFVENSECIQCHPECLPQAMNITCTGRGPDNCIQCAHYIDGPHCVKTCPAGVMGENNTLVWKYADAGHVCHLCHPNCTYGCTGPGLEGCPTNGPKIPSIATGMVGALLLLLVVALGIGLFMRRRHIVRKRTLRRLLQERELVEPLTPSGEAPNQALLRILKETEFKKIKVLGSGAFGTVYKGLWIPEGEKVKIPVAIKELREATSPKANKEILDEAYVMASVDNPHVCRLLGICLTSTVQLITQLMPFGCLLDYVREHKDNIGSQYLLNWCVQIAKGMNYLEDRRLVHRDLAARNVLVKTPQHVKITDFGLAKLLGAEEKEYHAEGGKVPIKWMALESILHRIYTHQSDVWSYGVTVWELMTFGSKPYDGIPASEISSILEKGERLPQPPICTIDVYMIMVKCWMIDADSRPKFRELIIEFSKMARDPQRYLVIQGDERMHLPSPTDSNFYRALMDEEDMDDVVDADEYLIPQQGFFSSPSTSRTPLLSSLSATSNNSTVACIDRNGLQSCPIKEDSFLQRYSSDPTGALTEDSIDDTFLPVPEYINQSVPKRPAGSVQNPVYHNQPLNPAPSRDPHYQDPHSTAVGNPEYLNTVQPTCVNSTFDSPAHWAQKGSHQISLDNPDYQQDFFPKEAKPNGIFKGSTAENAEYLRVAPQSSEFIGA

SMILES	IC50 [1]	IC50 (EGFR wild type (EGFR WT))	IC50 (EGFR)	IC50 ([2]; read-out: Assay 1 IC50)	Assay 7 Pe Ratio (MDR1 (P-gp) [3])	IC50 (ErbB2 WT)	Assay 9 Pe Ratio (BCRP [4])	Assay 6 Pe Ratio (MDR1 (P-gp) [5])	efflux ratio at 2 h, 1 μM (BCRP [6])	efflux ratio at 2 h, 1 μM (MDR1 (P-gp) [7])	IC50 ([2]; Assay 1 IC50 (nM))
Cc1cc(Nc2ncnc3cnc(N4[C@H]5CC[C@@H]4[C@H](O)C5)nc23)ccc1Oc1ccc2c(c1)ncn2C (racemic) [Example 104, ±(1R,2R,4S)-7-(8-((3-methyl-4-((1-methyl-1H-benzo[d]imidazol-5-yl)oxy)phenyl)amino)pyrimido[5,4-d]pyrimidin-2-yl)-7-azabicyclo[2.2.1]heptan-2-ol]	31.8 nM	5000 nM	4680 nM	18.6 nM	1.4	18.2 nM	16.0	–	–	–	–
Cc1cc(Nc2ncnc3cnc(N4[C@H]5CC[C@@H]4[C@@H](O)C5)nc23)ccc1Oc1ccc2c(c1)ncn2C (racemic) [Example 105, ±(1R,2S,4S)-7-(8-((3-methyl-4-((1-methyl-1H-benzo[d]imidazol-5-yl)oxy)phenyl)amino)pyrimido[5,4-d]pyrimidin-2-yl)-7-azabicyclo[2.2.1]heptan-2-ol]	39 nM	5000 nM	10000 nM	56.7 nM	2.0	48.5 nM	8.6	–	–	–	–
Cc1cc(Nc2ncnc3cnc(N4CCC45CCOC5)nc23)ccc1Oc1ccc2c(c1)ncn2C (racemic) [Example 111, rac-(R)—N-(3-methyl-4-((1-methyl-1H-benzo[c]imidazol-5-yl)oxy)phenyl)-6-(6-oxa-1-azaspiro[3.4]octan-1-yl)pyrimido[5,4-d]pyrimidin-4-amine]	13 nM	5000 nM	3530 nM	28.2 nM	1.7	24 nM	1.6	1.3	–	–	–
Cc1cc(Nc2ncnc3cnc(NC4CCC4)nc23)ccc1Oc1ccc2c(c1)ncn2C [Example 14, N2-cyclobutyl-N8-(3-methyl-4-((1-methyl-1H-benzo[d]imidazol-5-yl)oxy)phenyl)pyrimido[5,4-d]pyrimidine-2,8-diamine]	37 nM	≥ 5000 nM	≥ 10000 nM	56.2 nM	–	85.9 nM	–	–	0.9	1.3	–
Cc1cc(Nc2ncnc3cnc(NCC4CC4)nc23)ccc1Oc1ccc2c(c1)ncn2C [Example 20, N2-(cyclopropylmethyl)-N8-(3-methyl-4-((1-methyl-1H-benzo[d]imidazol-5-yl)oxy)phenyl)pyrimido[5,4-d]pyrimidine-2,8-diamine]	44.8 nM	≥ 5000 nM	≥ 10000 nM	66.1 nM	–	130 nM	–	–	0.7	1.9	–
Cc1cc(Nc2ncnc3cnc(N(C)C)nc23)ccc1Oc1ccc2csnc2c1 [Example 49, N8-(4-(benzo[c]isothiazol-6-yloxy)-3-methylphenyl)-N2,N2-dimethylpyrimido[5,4-d]pyrimidine-2,8-diamine 2,2,2-trifluoroacetate]	132 nM	≥ 5000 nM	2250 nM	55.3 nM	–	241 nM	–	–	5.1	1.7	–
Cc1cc(Nc2ncnc3cnc(N4CCOCC4)nc23)ccc1Oc1ccc2scnc2c1.O=C(O)C(F)(F)F [Example 82, N-(4-(benzo[d]thiazol-5-yloxy)-3-methylphenyl)-6-morpholinopyrimido[5,4-d]pyrimidin-4-amine 2,2,2-trifluoroacetate]	54.7 nM	≥ 5000 nM	1220 nM	–	–	204 nM	–	–	1	1.3	47 nM
Cc1c(Oc2ccc3c(c2)ncn3C)ccc(Nc2ncnc3cnc(N4CCOCC4)nc23)c1F [Example 263]	16.1 nM	≥ 5000 nM	≥ 10000 nM	57.6 nM	–	137 nM	–	–	1.5	0.9	–
Cc1cc(Nc2ncnc3cnc(NC4(C)CC4)nc23)ccc1Oc1ccc2c(c1)ncn2C [Example 268]	39 nM	≥ 5000 nM	≥ 10000 nM	82 nM	–	93.7 nM	–	–	1.1	1.5	–
Cc1cc(Nc2ncnc3cnc(N(C)C)nc23)ccc1Oc1ccc2scnc2c1 [Example 271]	30.9 nM	3080 nM	1260 nM	42.2 nM	–	145 nM	–	–	0.9	1.8	–
